Tests used:
[1] = system: patient with bowel pain associated with menses; conditions: open injection at 4 hours after the placebo saline administration
Method: The patients were greeted in a waiting room, escorted to an examination room, and introduced to the study. […] A one-hour NH condition preceded either the RL or RP administration in both sessions. Thus, patients rated their rectal pain for one hour at 15-minute intervals before injection of the rectal agent (NH) and 15 min, 30 min, 45 min, 1 hour, 2 hours, 4 hours, and 6 hours afterwards. Both agents were applied through a plastic syringe. […] After all of the sessions were completed, the patients were debriefed.

[2] = system: patients with pain associated with IBS
From the text: Ten Caucasian pre-menopausal women with IBS participated in the study. The mean age was 33 (±4) years. All participants completed a GI symptom questionnaire and received a physical examination by an experienced gastroenterologist. The diagnosis of IBS was made based on the ROME II criteria and exclusion of organic disease (Thompson et al., 1999). All the patients had diarrhea-predominant IBS and had symptoms for at least 5 years. All of the IBS patients were carefully screened to verify that each patient had no clinical criteria for fibromyalgia or chronic pain condition.
All subjects were asked to fast for 12 hours and self-administer one Fleets® enema (CB Fleet Co., Inc., Lynchberg, Va.) at least two hours prior to arriving for the experimental procedures. […] A validated visual analogue scale was used to measure the subjects' perceived pain (Price, 1994).
A one-hour NH condition preceded either the RL or RP administration in both sessions. Thus, patients rated their rectal pain for one hour at 15-minute intervals before injection of the rectal agent (NH) and 15 min, 30 min, 45 min, 1 hour, 2 hours, 4 hours, and 6 hours afterwards. Both agents were applied through a plastic syringe.
The pain rating at each post-treatment time point was subtracted from the baseline rating to create a pain intensity difference score (PID) for each post-treatment time point of each patient. […]

SMILES: CCN(CC)CC(=O)Nc1c(C)cccc1C [lidocaine]
- effect of open injection on bowel pain [1]: reversed bowel pain
- duration of pain ameliorating effect in IBS patients [2]: at least 4 hours

Source: patent US20040142968A1, “Method and kit for treating lower bowel pain” (priority 2003, published 2004)
